From ChEMBL document CHEMBL1145498, “A systematic interaction map of validated kinase inhibitors with Ser/Thr kinases” (Proc Natl Acad Sci U S A, 2007) come the findings set out here.

The structures appear in SMILES notation.

Test [1] deals with Dual specificity mitogen-activated protein kinase kinase 2 (Homo sapiens, UniProt P36507).
The target of test [2] is Serine/threonine-protein kinase Chk2 (Homo sapiens, UniProt O96017).
Test [3] concerns the target Serine/threonine-protein kinase Nek6 (Homo sapiens) (UniProt Q9HC98).
For test [4], the target named is Casein kinase I isoform gamma-2 (Homo sapiens) (UniProt P78368).
Test [5] has as its target T1, Serine/threonine-protein kinase 4 (Homo sapiens) (UniProt Q13043).
T1 sequence (whole entry): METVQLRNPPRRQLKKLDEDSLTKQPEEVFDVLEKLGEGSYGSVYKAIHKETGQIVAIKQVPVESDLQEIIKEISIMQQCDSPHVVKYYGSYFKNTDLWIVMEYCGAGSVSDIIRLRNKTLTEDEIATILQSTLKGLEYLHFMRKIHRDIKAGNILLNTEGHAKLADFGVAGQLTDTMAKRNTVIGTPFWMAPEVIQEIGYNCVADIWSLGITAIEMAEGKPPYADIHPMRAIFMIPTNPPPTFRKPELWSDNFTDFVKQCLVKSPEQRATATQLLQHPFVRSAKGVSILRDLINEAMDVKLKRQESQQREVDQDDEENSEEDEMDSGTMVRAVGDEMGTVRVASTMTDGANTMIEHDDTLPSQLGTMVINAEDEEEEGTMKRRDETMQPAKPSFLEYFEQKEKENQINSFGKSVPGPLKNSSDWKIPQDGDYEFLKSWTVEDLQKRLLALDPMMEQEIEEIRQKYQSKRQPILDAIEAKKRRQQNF

In test [6] the target is T2, Mitogen-activated protein kinase kinase kinase 5 (Homo sapiens) (UniProt Q99683).
T2 sequence (whole entry): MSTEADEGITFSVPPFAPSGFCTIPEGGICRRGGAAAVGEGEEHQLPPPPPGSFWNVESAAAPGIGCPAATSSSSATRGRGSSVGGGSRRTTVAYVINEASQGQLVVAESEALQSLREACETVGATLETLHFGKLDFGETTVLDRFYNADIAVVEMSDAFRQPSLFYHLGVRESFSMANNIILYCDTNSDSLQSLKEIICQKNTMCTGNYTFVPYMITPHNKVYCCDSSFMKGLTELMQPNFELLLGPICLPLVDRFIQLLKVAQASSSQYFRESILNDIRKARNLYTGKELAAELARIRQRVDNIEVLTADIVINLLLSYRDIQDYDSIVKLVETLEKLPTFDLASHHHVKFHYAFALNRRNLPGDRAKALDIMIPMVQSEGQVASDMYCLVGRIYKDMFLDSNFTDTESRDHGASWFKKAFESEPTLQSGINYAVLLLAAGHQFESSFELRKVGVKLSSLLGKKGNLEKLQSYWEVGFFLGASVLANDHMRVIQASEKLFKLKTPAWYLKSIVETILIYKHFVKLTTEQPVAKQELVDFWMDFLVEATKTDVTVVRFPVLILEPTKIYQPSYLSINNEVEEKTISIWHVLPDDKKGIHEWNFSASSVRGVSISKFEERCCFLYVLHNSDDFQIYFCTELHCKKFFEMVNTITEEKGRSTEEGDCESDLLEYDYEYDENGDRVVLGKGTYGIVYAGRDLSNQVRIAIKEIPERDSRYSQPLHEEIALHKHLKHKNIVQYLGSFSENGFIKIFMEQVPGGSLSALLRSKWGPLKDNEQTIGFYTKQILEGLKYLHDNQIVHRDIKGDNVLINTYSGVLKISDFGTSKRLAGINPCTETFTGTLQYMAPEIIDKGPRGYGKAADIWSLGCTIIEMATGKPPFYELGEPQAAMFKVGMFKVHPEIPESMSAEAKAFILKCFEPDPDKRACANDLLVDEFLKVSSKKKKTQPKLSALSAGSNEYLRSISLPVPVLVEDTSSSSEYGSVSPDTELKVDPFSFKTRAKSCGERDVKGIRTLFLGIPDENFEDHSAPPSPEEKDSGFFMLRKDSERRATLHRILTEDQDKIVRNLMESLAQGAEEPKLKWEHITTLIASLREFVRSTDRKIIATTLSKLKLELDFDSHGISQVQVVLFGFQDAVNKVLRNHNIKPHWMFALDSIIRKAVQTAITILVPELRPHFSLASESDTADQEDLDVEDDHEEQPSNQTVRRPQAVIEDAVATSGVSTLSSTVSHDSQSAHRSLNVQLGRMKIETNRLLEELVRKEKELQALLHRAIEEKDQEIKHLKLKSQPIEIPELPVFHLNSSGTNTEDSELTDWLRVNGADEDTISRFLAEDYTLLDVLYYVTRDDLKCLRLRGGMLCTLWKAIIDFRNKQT

The target of test [7] is T3, 3-phosphoinositide-dependent protein kinase 1 (Homo sapiens) (UniProt O15530).
T3 sequence (whole entry): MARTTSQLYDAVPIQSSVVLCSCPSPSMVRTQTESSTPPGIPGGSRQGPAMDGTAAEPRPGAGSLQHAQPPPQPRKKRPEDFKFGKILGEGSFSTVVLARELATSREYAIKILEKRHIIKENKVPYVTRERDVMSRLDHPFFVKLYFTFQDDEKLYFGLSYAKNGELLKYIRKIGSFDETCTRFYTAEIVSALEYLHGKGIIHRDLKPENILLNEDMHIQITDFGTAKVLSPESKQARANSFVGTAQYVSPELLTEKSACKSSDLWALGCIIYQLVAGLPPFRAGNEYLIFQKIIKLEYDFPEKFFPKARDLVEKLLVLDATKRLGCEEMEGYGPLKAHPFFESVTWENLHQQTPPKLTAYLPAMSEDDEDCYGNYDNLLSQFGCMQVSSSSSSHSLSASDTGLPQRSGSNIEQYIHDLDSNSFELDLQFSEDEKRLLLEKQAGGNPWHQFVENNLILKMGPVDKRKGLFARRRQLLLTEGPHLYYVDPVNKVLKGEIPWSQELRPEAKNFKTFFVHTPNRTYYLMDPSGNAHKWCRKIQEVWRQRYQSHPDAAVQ

Test [8] deals with Ribosomal protein S6 kinase alpha-3 (Homo sapiens) (UniProt P51812).
The target of test [9] is Casein kinase I isoform gamma-3 (Homo sapiens) (UniProt Q9Y6M4).
Chain of Casein kinase I isoform gamma-3 (Homo sapiens) (Q9Y6M4 whole entry, looked up, canonical isoform): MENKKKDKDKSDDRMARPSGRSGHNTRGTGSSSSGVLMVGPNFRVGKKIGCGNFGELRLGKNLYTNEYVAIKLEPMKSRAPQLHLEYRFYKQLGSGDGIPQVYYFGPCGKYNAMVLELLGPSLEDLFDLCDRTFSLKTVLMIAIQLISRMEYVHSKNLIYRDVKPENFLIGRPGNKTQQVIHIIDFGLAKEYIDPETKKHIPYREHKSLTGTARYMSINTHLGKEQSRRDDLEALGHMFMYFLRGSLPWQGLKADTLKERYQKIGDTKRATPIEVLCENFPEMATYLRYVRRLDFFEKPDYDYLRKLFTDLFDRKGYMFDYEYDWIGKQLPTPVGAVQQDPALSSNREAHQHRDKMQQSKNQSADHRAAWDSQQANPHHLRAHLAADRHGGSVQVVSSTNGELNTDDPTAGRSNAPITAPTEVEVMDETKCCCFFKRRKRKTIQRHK

Chain of Serine/threonine-protein kinase Nek6 (Homo sapiens) (Q9HC98 whole entry, canonical isoform): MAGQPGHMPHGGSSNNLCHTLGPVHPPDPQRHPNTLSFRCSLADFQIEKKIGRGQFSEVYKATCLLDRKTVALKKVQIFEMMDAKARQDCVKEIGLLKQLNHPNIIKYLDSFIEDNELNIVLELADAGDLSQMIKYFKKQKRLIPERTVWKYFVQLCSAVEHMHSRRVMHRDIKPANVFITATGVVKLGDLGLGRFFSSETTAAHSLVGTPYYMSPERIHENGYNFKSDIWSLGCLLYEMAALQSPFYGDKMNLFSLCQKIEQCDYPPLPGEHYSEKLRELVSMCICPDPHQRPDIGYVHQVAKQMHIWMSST
Chain of Ribosomal protein S6 kinase alpha-3 (Homo sapiens) (P51812 whole entry, canonical isoform): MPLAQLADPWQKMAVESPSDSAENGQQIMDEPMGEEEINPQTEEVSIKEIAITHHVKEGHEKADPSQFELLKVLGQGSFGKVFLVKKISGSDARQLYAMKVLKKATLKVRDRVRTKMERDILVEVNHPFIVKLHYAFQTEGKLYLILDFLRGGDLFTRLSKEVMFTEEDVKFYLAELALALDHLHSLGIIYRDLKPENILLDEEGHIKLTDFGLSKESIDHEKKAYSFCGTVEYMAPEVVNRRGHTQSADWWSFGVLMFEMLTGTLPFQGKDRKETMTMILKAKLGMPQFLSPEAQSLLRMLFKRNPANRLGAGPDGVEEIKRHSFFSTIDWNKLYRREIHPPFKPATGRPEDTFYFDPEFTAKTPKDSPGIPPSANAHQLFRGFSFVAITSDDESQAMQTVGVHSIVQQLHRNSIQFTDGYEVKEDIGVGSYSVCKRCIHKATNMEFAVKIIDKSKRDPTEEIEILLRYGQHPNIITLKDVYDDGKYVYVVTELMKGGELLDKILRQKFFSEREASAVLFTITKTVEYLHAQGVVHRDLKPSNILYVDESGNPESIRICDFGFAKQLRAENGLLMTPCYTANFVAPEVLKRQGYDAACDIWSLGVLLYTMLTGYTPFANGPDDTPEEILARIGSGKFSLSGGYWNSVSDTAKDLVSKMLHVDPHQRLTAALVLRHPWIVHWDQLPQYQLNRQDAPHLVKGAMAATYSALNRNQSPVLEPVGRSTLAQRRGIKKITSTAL
Chain of Dual specificity mitogen-activated protein kinase kinase 2 (P36507 whole entry): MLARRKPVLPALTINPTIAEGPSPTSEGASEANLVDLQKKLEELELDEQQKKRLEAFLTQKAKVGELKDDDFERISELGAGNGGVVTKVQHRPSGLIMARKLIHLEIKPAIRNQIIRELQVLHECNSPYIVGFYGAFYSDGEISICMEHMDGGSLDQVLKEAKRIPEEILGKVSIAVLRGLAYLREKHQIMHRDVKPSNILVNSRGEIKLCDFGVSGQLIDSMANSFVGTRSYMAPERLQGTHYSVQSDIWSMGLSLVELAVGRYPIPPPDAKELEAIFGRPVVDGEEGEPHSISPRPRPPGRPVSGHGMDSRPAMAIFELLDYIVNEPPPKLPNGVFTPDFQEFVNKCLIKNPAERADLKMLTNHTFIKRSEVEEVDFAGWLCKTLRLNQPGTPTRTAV
Chain of Serine/threonine-protein kinase Chk2 (O96017 whole entry): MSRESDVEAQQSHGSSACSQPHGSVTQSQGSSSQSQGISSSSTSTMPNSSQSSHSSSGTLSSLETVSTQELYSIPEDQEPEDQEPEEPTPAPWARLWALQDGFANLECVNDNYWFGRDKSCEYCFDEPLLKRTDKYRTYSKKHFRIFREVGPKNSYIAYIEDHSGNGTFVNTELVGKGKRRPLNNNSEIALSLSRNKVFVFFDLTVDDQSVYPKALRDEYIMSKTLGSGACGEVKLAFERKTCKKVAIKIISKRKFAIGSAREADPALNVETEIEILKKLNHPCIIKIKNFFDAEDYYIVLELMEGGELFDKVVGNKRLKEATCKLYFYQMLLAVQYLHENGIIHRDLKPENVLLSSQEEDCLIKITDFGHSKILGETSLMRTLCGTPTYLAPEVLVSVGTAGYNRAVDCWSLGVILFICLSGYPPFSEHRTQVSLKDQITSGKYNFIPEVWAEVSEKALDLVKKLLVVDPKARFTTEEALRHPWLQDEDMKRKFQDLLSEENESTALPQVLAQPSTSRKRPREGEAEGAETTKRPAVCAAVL
Chain of Casein kinase I isoform gamma-2 (Homo sapiens) (P78368 whole entry, looked up, canonical isoform): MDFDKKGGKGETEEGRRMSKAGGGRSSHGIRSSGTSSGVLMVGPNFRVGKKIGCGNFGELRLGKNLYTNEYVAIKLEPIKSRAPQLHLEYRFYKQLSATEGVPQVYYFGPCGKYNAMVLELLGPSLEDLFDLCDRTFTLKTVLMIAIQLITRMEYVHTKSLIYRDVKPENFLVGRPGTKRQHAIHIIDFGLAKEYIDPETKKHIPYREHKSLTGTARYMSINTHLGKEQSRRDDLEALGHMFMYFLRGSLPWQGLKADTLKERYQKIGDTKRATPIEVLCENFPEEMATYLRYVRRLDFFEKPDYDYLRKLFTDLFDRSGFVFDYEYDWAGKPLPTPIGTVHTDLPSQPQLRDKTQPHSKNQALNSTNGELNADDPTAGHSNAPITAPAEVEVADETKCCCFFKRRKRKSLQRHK

By ΔTm is commonly meant the shift of the melting midpoint relative to a reference. As to `CC(C)N(CCO)c1nc(Nc2cccc(Cl)c2)c2ncn(C(C)C)c2n1`, the ΔTm was 0.6 °C in test [1]; 0.6 °C in test [2]; -0.2 °C in test [3]; 3.8 °C in [4]; 4.2 °C in test [5]; 0.4 °C in [6]. Also, the ΔTm in test [7] is -0.8 °C; in test [8], 0.6 °C; in [9], 6.7 °C.
Turning to `N#C/C(=C\c1ccc(O)c(O)c1)C(=O)NCc1ccccc1`, the ΔTm in test [1] was 0.2 °C; in test [2], 0.4 °C; in test [3] it was 1 °C; in [4], 0.7 °C; in [5], 0.4 °C; in test [6] it was -0.2 °C. For the same compound, the ΔTm in [7] came to 0.5 °C; in test [8] it was 1.2 °C; in test [9], 0.5 °C.
For the compound `NC(=O)c1ccc(-c2nc(-c3ccc4c(c3)OCCO4)c(-c3ccccn3)[nH]2)cc1`, the ΔTm was -0.1 °C in [1]; -0.3 °C in test [2]; -0.7 °C in [3]; 0.4 °C in [4]; 1.1 °C in test [5]; 0.3 °C in test [6]. For the same compound, the ΔTm was -0.1 °C in test [7], 0 °C in test [8] and 0.8 °C in test [9].
Turning to `COc1cc2ncnc(Nc3cccc(Br)c3)c2cc1OC`, the ΔTm came out at 0.3 °C in test [1]; 2 °C in [2]; 0.5 °C in test [3]; 0.6 °C in [4]; 1.5 °C in test [5]; 1.4 °C in [6]. In addition, the figures for the ΔTm in test [7], in test [8] and in [9] were 0 °C, 0.1 °C and -0.1 °C, respectively.
For the compound `Nc1nc(Nc2ccc(S(N)(=O)=O)cc2)nn1C(=S)Nc1c(F)cccc1F`, the shift in melting temperature (ΔTm) in test [1] was found to be 5.1 °C; in test [2], 8.6 °C; in [3], 0.2 °C; in test [4], 4.9 °C; in test [5], 12.9 °C; in [6], 16.8 °C. Also, the ΔTm turned out to be 0.4 °C in [7], 9.6 °C in [8] and 5.3 °C in [9].
As to `O=C(O)c1cc(NCc2cc(O)ccc2O)ccc1O`, the ΔTm in test [1] was 0.2 °C; in [2], 0 °C; in test [3], 0 °C; in [4], 0.3 °C; in [5] it was -0.6 °C; in test [6] it was -0.1 °C. Besides, the ΔTm in test [7] was 0.2 °C; in [8], 0.3 °C; in [9], 0.3 °C.
On to `O=c1c(-c2ccc(O)cc2)coc2cc(O)cc(O)c12`, for which the thermal shift (ΔTm) in [1] worked out at 0.3 °C; in test [2], 1.6 °C; in test [3] it was 1 °C; in test [4], 0.3 °C; in test [5] it was 1.5 °C; in [6], 0.6 °C. Besides, the ΔTm in [7] was 2.5 °C; in [8] it was 1.5 °C; in [9] it was 1.6 °C.
`COC1=C2C[C@@H](C)C[C@H](OC)[C@H](O)[C@@H](C)/C=C(\C)[C@H](OC(N)=O)[C@@H](OC)/C=C\C=C(/C)C(=O)NC(=CC1=O)C2=O`: the ΔTm in test [1] was -0.5 °C; in test [2], 0.2 °C; in [3], -0.2 °C; in test [4], 0.4 °C; in test [5], 0.1 °C; in [6], -0.5 °C. Also, the ΔTm in test [7] was 0 °C; in test [8], -0.3 °C; in test [9], 0.4 °C.
For the compound `Cc1cc2ncc(-c3ccccc3)nc2cc1C`, the ΔTm in [1] was 0 °C; in [2] it was -0.3 °C; in [3], 0.2 °C; in test [4] it was 0.5 °C; in test [5] it was 2.2 °C; in [6] it was 0.3 °C. In addition, the ΔTm was -0.1 °C in test [7], -0.1 °C in [8] and 1.1 °C in [9].
With `CN(C)c1ccc(CC2C(=O)Nc3ccccc32)cc1` (stereo unspecified), the ΔTm came to 1.4 °C in test [1]; 0.7 °C in test [2]; 0 °C in test [3]; 0.8 °C in test [4]; 4.4 °C in test [5]; 1.1 °C in test [6]. The ΔTm in test [7] came out at 0.3 °C; in test [8], 0.9 °C; in [9], 0.8 °C.
Turning to `Nc1ncnc2c1c(I)cn2[C@@H]1O[C@H](CO)[C@@H](O)[C@H]1O`, the ΔTm in test [1] was 1.9 °C; in test [2], 0.9 °C; in [3] it was -0.2 °C; in test [4], 3.7 °C; in [5], 4.7 °C; in test [6] it was 0.9 °C. Also, the ΔTm in test [7] was 0 °C; in test [8], 1.4 °C; in test [9] it was 2.7 °C.
As for `O=C1C=C2C(=Nc3c2c2c(c4c3=NC3=C4CCC=C3)C=NC=2)CC1`, the ΔTm is 3.1 °C in test [1]; 7.9 °C in test [2]; 0.5 °C in [3]; 1.4 °C in [4]; 2.1 °C in test [5]; 5.7 °C in [6]. Further, the ΔTm in test [7] is -0.3 °C; in test [8], 5.1 °C; in [9], 0.8 °C.
Turning to `Oc1ccc(-c2nc(-c3ccc(F)cc3)c(-c3ccncc3)[nH]2)cc1`, the ΔTm in [1] is 0.9 °C; in [2] it was -0.2 °C; in [3], 0.4 °C; in test [4], 0.8 °C; in test [5] it was 0.9 °C; in test [6] it was 0.3 °C. Also, the values for the ΔTm in test [7], in test [8] and in test [9] were -1 °C, 0.3 °C and 1.1 °C, respectively.
With `O=c1ccc2ccc(O)c(O)c2o1` [DAPHNETIN], the ΔTm is -0.3 °C in [1]; -0.1 °C in test [2]; -0.3 °C in [3]; 0.1 °C in test [4]; 0 °C in [5]; -0.6 °C in test [6]. For the same compound, the figures for the ΔTm in test [7], in [8] and in [9] were 0 °C, 0.1 °C and 0.4 °C, respectively.
